The source of these data is US8846863B2, “Heat stable protein ingredients” (University of Tennessee Research Foundation, priority 2010, dated 2014).

This data set in a line: Thymol solubility / dispersion in deionized water. In kind it is physicochemical. Conditions: suspended at […] in deionized water.

As to `Cc1ccc(C(C)C)c(O)c1` [thymol, 2-Isopropyl-5-methylphenol], the Appearance of suspension result is reported as “showed insoluble particulates”.
